Laboratory results: patent US9732094B2, “Arylquinazolines” (Merck Patent GmbH, priority 2013, dated 2017)
Where two headings read alike, the source gives them in different places.

What was measured:
[1] = molecular target: Kv11.1 (hERG) (Homo sapiens (Human), UniProt Q12809); test: Kv11.1 (hERG) ion channel activity (patch clamp assay), HEK293 cells transfected with hERG gene; conditions: patch clamp, HEK293 transfected with hERG gene
[2] = molecular target: DNA-PK phosphorylation at serine 2056 (Homo sapiens (Human), UniProt P78527); test: DNA-PK phosphorylation at serine 2056 (cellular), bleomycin-treated HCT116 cells, ELISA; type: cell-based; conditions: cellular; HCT116 cells, 10 μM bleomycin, six hours; read-out: IC50 pDNA-PK
Procedure, shortened: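 Chemiluminescent ELISA quantified DNA-PK Ser2056 phosphorylation relative to total DNA-PKcs in HCT116 cells. Cells received compounds together with 10 μM bleomycin for 6 h; DMSO served as blank.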

[3] = molecular target: DNA-PK (Homo sapiens (Human), UniProt P78527); test: DNA-PK assay (biochemical), flashplate 33P-ATP kinase assay; conditions: enzymatic; 5 μM ATP
Procedure, shortened: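 Reactions ran in streptavidin-coated flashplates and were halted by 200 mM EDTA, with a further 30 min at room temperature before saline washing.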

Kv11.1 (hERG), sequence (Q12809 whole entry): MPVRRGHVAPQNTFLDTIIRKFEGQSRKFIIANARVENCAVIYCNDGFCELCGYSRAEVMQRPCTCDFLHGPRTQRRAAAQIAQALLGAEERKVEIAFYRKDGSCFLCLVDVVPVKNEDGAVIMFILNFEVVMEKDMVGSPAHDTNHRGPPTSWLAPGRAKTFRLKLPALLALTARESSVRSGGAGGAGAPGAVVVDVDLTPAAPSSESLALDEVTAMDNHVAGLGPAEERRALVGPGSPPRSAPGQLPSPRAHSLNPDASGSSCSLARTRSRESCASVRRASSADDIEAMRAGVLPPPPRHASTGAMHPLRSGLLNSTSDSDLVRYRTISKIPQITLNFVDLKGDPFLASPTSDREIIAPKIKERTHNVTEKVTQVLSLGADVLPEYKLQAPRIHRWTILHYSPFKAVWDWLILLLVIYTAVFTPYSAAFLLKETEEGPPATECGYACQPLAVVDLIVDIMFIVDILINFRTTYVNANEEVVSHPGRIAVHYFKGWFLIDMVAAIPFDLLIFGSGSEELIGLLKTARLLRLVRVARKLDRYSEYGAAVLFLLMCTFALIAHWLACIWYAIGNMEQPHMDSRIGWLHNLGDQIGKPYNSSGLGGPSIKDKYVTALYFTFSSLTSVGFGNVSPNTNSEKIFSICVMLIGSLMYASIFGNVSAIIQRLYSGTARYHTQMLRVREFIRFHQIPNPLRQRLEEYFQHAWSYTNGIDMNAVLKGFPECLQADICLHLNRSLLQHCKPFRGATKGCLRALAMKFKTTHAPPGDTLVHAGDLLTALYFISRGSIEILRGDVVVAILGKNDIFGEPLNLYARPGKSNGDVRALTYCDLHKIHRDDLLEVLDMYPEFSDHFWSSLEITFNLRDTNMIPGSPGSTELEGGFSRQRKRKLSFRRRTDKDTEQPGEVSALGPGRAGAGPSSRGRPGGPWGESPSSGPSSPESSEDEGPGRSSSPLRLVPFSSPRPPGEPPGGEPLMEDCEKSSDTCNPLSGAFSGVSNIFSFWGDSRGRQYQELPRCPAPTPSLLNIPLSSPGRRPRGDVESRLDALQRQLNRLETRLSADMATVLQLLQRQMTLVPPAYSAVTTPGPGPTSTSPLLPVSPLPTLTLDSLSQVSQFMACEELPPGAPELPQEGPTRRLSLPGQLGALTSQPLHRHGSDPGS

SMILES | Ki ([1]; Ki [Kv1.11 hERG]) [µM] | IC50 [2] [µM] | IC50 [3] [nM] | Ki ([1]; read-out: Ki [Kv1.11 hERG]) [µM]
OC(c1ccc(F)c(-c2ncnc3cc(N4CCOCC4)ccc23)c1)c1nccnc1Cl (stereo not drawn) [Example 54, (3-Chloro-pyrazin-2-yl)-[4-fluoro-3-(7-morpholin-4-yl-quinazolin-4-yl)phenyl]-methanol] | 15 to 25 | < 0.5 | < 3 | 
O=C(O)c1ccc(C(O)c2cc(-c3ncnc4cc(N5CCOCC5)ccc34)c(F)cc2Cl)nn1 (stereo not drawn) [Example 55, 6-{[2-Chloro-4-fluoro-5-(7-morpholin-4-yl-quinazolin-4-yl)phenyl]-hydroxymethyl}-pyridazine-3-carboxylic acid] |  | 10 to 30 | 3 to 7 | > 25
OC(c1ccc2nccn2n1)c1cc(-c2ncnc3cc(N4CCOCC4)ccc23)c(F)cc1Cl (stereo not drawn) [Example 56, [2-Chloro-4-fluoro-5-(7-morpholin-4-yl-quinazolin-4-yl)phenyl]-imidazo[1,2-b]pyridazin-6-ylmethanol] | 10 to 15 | 0.5 to 5 | 3 to 7 | 
OC(c1ccc2nccn2n1)c1cc(-c2ncnc3cc(N4CCOCC4)ccc23)c(F)cc1Cl (stereo not drawn) [Example 57, [2-Chloro-4-fluoro-5-(7-morpholin-4-yl-quinazolin-4-yl)phenyl]-imidazo[1,2-b]pyridazin-6-ylmethanol] |  | < 0.5 | < 3 | 10 to 15
COC(=O)c1ccc(C(O)c2cc(-c3ncnc4cc(N5CCOCC5)ccc34)c(F)cc2Cl)nn1 (stereo not drawn) [Example 58, 6-{[2-Chloro-4-fluoro-5-(7-morpholin-4-yl-quinazolin-4-yl)phenyl]-hydroxymethyl}-pyridazine-3-carboxylic acid methyl ester] |  | 5 to 10 | 3 to 7 | > 25
Cn1nc(C(O)c2cc(-c3ncnc4cc(N5CCOCC5)ccc34)c(F)cc2Cl)ccc1=O (stereo not drawn) [Example 59, 6-{[2-Chloro-4-fluoro-5-(7-morpholin-4-yl-quinazolin-4-yl)phenyl]-hydroxymethyl}-2-methyl-2H-pyridazin-3-one] | 15 to 25 | 0.5 to 5 | < 3 | 
COc1cnc(C(O)c2ccc(F)c(-c3ncnc4cc(N5CCOCC5)ccc34)c2)cn1 (stereo not drawn) [Example 60, [4-Fluoro-3-(7-morpholin-4-yl-quinazolin-4-yl)phenyl]-(5-methoxypyrazin-2-yl)methanol] | 15 to 25 | 0.5 to 5 | 7 to 30 | 
COc1cnc(C(O)c2ccc(OC)c(-c3ncnc4cc(N5CCOCC5)ccc34)c2)cn1 (stereo not drawn) [Example 61, [4-methoxy-3-(7-morpholin-4-yl-quinazolin-4-yl)phenyl]-(5-methoxypyrazin-2-yl)methanol] |  | 10 to 30 | > 30 | > 25
NC(=O)c1ccc(C(O)c2cc(-c3ncnc4cc(N5CCOCC5)ccc34)c(F)cc2Cl)nn1 (stereo not drawn) [Example 62, 6-{[2-Chloro-4-fluoro-5-(7-morpholin-4-yl-quinazolin-4-yl)phenyl]-hydroxymethyl}-pyridazine-3-carboxylic acid amide] |  | 0.5 to 5 | 3 to 7 | > 25
OC(c1ccc2nccn2n1)c1cc(-c2ncnc3cc(N4CCOCC4)ccc23)c(F)cc1Cl (stereo not drawn) [Example 63, [2-Chloro-4-fluoro-5-(7-morpholin-4-yl-quinazolin-4-yl)phenyl]-imidazo[1,2-b]pyridazin-6-ylmethanol] |  | 0.5 to 5 | < 3 | 10 to 15
OC(c1cc(-c2ncnc3cc(N4CCOCC4)ccc23)c(F)cc1Cl)c1nccnc1Cl (stereo not drawn) [Example 64, [2-Chloro-4-fluoro-5-(7-morpholin-4-yl-quinazolin-4-yl)phenyl]-(3-chloropyrazin-2-yl)-methanol] | 10 to 15 | < 0.5 | 3 to 7 | 
OC(c1ccc(F)c(-c2ncnc3cc(N4CCOCC4)ccc23)c1)c1cccnn1 (stereo not drawn) [Example 65, [4-Fluoro-3-(7-morpholin-4-yl-quinazolin-4-yl)phenyl]-pyridazin-3-ylmethanol] |  | 0.5 to 5 | 7 to 30 | > 25
COc1cnc(C(O)c2ccc(F)c(-c3ncnc4cc(N5CCOCC5)ccc34)c2)nc1 (stereo not drawn) [Example 66, [4-Fluoro-3-(7-morpholin-4-yl-quinazolin-4-yl)phenyl]-(5-methoxypyrimidin-2-yl)methanol] |  | 10 to 30 | 7 to 30 | > 25
COc1cnc(C(O)c2ccc(F)c(-c3ncnc4cc(N5CCOCC5)ccc34)c2)nc1 (stereo not drawn) [Example 67, [4-Fluoro-3-(7-morpholin-4-yl-quinazolin-4-yl)phenyl]-(5-methoxypyrimidin-2-yl)methanol] |  | 5 to 10 | 7 to 30 | > 25
CN(C)c1ccc(C(O)c2ccc(F)c(-c3ncnc4cc(N5CCOCC5)ccc34)c2)nn1 (stereo not drawn) [Example 68, (6-Dimethylamino-pyridazin-3-yl)-[4-fluoro-3-(7-morpholin-4-yl-quinazolin-4-yl)phenyl]-methanol] |  | 5 to 10 | 3 to 7 | > 25
COc1cnc(C(O)c2ccc(F)c(-c3ncnc4cc(N5CCOCC5)ccc34)c2)nc1 (stereo not drawn) [Example 69, [4-Fluoro-3-(7-morpholin-4-yl-quinazolin-4-yl)phenyl]-(5-methoxypyrimidin-2-yl)methanol] |  | 5 to 10 | 3 to 7 | > 25
Cc1ccc(C(O)c2ccc(F)c(-c3ncnc4cc(N5CCOCC5)ccc34)c2)nn1 (stereo not drawn) [Example 70, [4-Fluoro-3-(7-morpholin-4-yl-quinazolin-4-yl)phenyl]-(6-methylpyridazin-3-yl)methanol] |  | 0.5 to 5 | 3 to 7 | > 25
COc1ccc([C@H](O)c2ccc(F)c(-c3ncnc4cc(N5CCOCC5)ccc34)c2)nn1 [Example 71, (R)-[4-Fluoro-3-(7-morpholin-4-yl-quinazolin-4-yl)phenyl]-(6-methoxypyridazin-3-yl)methanol] |  | 0.5 to 5 | < 3 | > 25
COc1ccc([C@@H](O)c2ccc(F)c(-c3ncnc4cc(N5CCOCC5)ccc34)c2)nn1 [Example 72, (S)-[4-Fluoro-3-(7-morpholin-4-yl-quinazolin-4-yl)phenyl]-(6-methoxypyridazin-3-yl)methanol] |  | 0.5 to 5 | < 3 | > 25
COc1ccc(C(OC)c2ccc(F)c(-c3ncnc4cc(N5CCOCC5)ccc34)c2)nn1 (stereo not drawn) [Example 73, 4-{2-Fluoro-5-[methoxy-(6-methoxy-pyridazin-3-yl)methyl]phenyl}-7-morpholin-4-yl-quinazoline] |  | 0.5 to 5 | 3 to 7 | > 25
COc1ccc(C(O)c2ccc(F)c(-c3ncnc4cc(N5CCOCC5)ccc34)c2)nn1 (stereo not drawn) [Example 74, [4-Fluoro-3-(7-morpholin-4-yl-quinazolin-4-yl)phenyl]-(6-methoxypyridazin-3-yl)methanol] |  | < 0.5 | < 3 | > 25
O=c1ccc(C(O)c2ccc(F)c(-c3ncnc4cc(N5CCOCC5)ccc34)c2)n[nH]1 (stereo not drawn) [Example 76, 6-{[4-Fluoro-3-(7-morpholin-4-yl-quinazolin-4-yl)phenyl]-hydroxymethyl}-2H-pyridazin-3-one] |  | 0.5 to 5 | < 3 | > 25
OC(c1ccc(F)c(-c2ncnc3cc(N4CCOCC4)ccc23)c1)c1c(F)cncc1Cl (stereo not drawn) [Example 77, (3-Chloro-5-fluoro-pyridin-4-yl)-[4-fluoro-3-(7-morpholin-4-yl-quinazolin-4-yl)phenyl]-methanol] | 10 to 15 | < 0.5 | 3 to 7 | 
